EC50 data for 27 compounds are collected here from patent US20220396569A1 (Carmot Therapeutics, Inc., priority 2021, published 2022).

In this assay the target is T1, human GLP-1 receptor (Homo sapiens, UniProt P43220).
T1 construct: expressed in transfected cells
As to the kind of experiment: GLP-1R cAMP Assay (HitHunter cAMP accumulation). Format: cell-based. The settings on record: cAMP accumulation, CHO cells stably overexpressing human GLP-1 receptor, 30 min treatment; read-out: EC50. In short, it runs like this: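 CHO cells stably expressing human GLP-1R, 10,000 cells/well in HBSS with 10 mM HEPES and 625 μM IBMX, were mixed with anti-cAMP antibody reagent. Compound was applied as a 20-point dose response in triplicate for 30 min. After lysis and overnight detection, luminescence was read and dose-response curves analysed.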

T1 sequence (P43220 24-463): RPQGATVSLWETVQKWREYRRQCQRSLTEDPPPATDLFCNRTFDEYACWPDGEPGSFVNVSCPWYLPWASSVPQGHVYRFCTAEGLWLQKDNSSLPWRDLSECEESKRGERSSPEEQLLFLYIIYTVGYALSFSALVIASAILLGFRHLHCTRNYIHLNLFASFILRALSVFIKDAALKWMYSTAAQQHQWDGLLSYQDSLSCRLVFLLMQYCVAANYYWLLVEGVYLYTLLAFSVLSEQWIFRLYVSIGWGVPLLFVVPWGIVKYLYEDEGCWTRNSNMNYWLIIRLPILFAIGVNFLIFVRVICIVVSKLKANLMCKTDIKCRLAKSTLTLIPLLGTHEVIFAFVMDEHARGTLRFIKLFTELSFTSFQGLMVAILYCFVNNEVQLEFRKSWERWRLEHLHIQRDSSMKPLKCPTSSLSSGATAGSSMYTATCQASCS

Turning to `N#Cc1ccc(OCc2nc(C3=CCN(Cc4nc5c(F)cc(C(=O)O)cc5n4C[C@@H]4CCO4)C3)ccc2F)c(F)c1` [Compound 421, 2-[(3-{6-[(4-cyano-2-fluorophenoxy)methyl]-5-fluoropyridin-2-yl}-2,5-dihydro-1H-pyrrol-1-yl)methyl]-4-fluoro-1-{[(2S)-oxetan-2-yl]methyl}-1H-1,3-benzodiazole-6-carboxylic acid], the EC50 is below 0.05 µM.
Under `Cc1ccc(OCc2cc(Oc3ccc(Cc4nc5ccc(C(=O)O)cc5n4C[C@@H]4CCO4)cn3)ccn2)c(F)c1` [Compound 544, (S)-2-((6-((2-((2-Fluoro-4-methylphenoxy)methyl)pyridin-4-yl)oxy)pyridin-3-yl)methyl)-1-(oxetan-2-ylmethyl)-1H-benzo[d]imidazole-6-carboxylic acid] stands below 0.05 µM.
Under `O=C(O)c1ccc2nc(CN3CCC(Cn4ccc(COc5ccc(Cl)cc5Cl)n4)CC3)n(C[C@@H]3CCO3)c2c1` [Example 127, (S)-2-((4-((3-((2,4-dichlorophenoxy)methyl)-1H-pyrazol-1-yl)methyl)piperidin-1-yl)methyl)-1-(oxetan-2-ylmethyl)-1H-benzo[d]imidazole-6-carboxylic acid] stands below 0.05 µM; under `CCn1cncc1Cn1c(CN2CC(Cc3cccc(COc4ccc(Cl)cc4Cl)c3)C2)nc2ccc(C(=O)O)cc21` [Example 197, 2-((3-(3-((2,4-Dichlorophenoxy)methyl)benzyl)azetidin-1-yl)methyl)-1-((1-ethyl-1H-imidazol-5-yl)methyl)-1H-benzo[d]imidazole-6-carboxylic acid], below 0.05 µM.
For `N#CCC1(Cn2c(CN3CC=C(c4ccc(F)c(COc5ccc(C#N)cc5F)n4)C3)nc3ccc(C(=O)O)cc32)CC1` [Compound 422, 2-[(3-{6-[(4-cyano-2-fluorophenoxy)methyl]-5-fluoropyridin-2-yl}-2,5-dihydro-1H-pyrrol-1-yl)methyl]-1-{[l-(cyanomethyl)cyclopropyl]methyl}-1H-1,3-benzodiazole-6-carboxylic acid] the value was below 0.05 µM.
On to `O=C(O)c1ccc2nc(CN3CC(Oc4cccc(COc5ccc(Cl)cc5Cl)c4)C3)n(C[C@@H]3CCO3)c2c1` [Example 192, (S)-2-((3-(3-((2,4-Dichlorophenoxy)methyl)phenoxy)azetidin-1-yl)methyl)-1-(oxetan-2-ylmethyl)-1H-benzo[d]imidazole-6-carboxylic acid], for which the EC50 is below 0.05 µM.
For `O=C(O)c1ccc2nc(CN3CC=C(c4ccnc(COc5ccc(Cl)cc5F)c4)C3)n(C[C@@H]3CCO3)c2c1` [Compound 403, 2-[(3-{2-[(4-chloro-2-fluorophenoxy)methyl]pyridin-4-yl}-2,5-dihydro-1H-pyrrol-1-yl)methyl]-1-{[(2S)-oxetan-2-yl]methyl}-1H-1,3-benzodiazole-6-carboxylic acid] the value was below 0.05 µM; for `N#Cc1ccc(OCc2nc(N3CC[C@H](Cc4nc5ccc(C(=O)O)cc5n4C[C@@H]4CCO4)C3)ccc2F)c(F)c1` [Compound 530], below 0.05 µM; for `N#Cc1ccc(OCc2nc(N3CC[C@@H](Cc4nc5c(F)cc(C(=O)O)cc5n4C[C@@H]4CCO4)C3)ccc2F)c(F)c1` [Compound 534], below 0.05 µM.
As to `N#Cc1ccc(OCc2nc([C@]34C[C@H]3CN(Cc3nc5c(F)cc(C(=O)O)cc5n3C[C@@H]3CCO3)C4)ccc2F)c(F)c1` [Compound 532, 2-{[(lR,5R)-1-{6-[(4-cyano-2-fluorophenoxy)methyl]-5-fluoropyridin-2-yl}-3-azabicyclo[3.1.0]hexan-3-yl]methyl}-4-fluoro-1-{[(2S)-oxetan-2-yl]methyl}-1H-1,3-benzodiazole-6-carboxylic acid], the 50% effective concentration (EC50) was below 0.05 µM.
For `O=C(O)c1ccc2nc(CN3CC(Cc4ccnc(COc5ccc(Cl)cc5Cl)c4)C3)n(C[C@@H]3CCO3)c2c1` [Example 177, (S)-2-((3-((2-((2,4-Dichlorophenoxy)methyl)pyridin-4-yl)methyl)azetidin-1-yl)methyl)-1-(oxetan-2-ylmethyl)-1H-benzo[d]imidazole-6-carboxylic acid] the value was below 0.05 µM; for `CCn1cncc1Cn1c(CN2C[C@@H](Oc3cccc(COc4ccc(Cl)cc4Cl)c3)[C@@H]2C)nc2ccc(C(=O)O)cc21` [Compound 234, 2-{[(2S,3R)-3-{3-[(2,4-dichlorophenoxy)methyl]phenoxy}-2-methylazetidin-1-yl]methyl}-1-[(1-ethyl-1H-imidazol-5-yl)methyl]-1H-1,3-benzodiazole-6-carboxylic acid], below 0.05 µM.
For `N#Cc1ccc(OCc2nc(C3=CCN(Cc4nc5ccc(C(=O)O)cc5n4CC4(CC(N)=O)CC4)C3)ccc2F)c(F)c1` [Compound 423, 1-{[1-(carbamoylmethyl)cyclopropyl]methyl}-2-[(3-{6-[(4-cyano-2-fluorophenoxy)methyl]-5-fluoropyridin-2-yl}-2,5-dihydro-1H-pyrrol-1-yl)methyl]-1H-1,3-benzodiazole-6-carboxylic acid] the value was 0.05 to 0.5 µM; for `N#CCC1(Cn2c(Cc3ccc(Oc4ccnc(COc5ccc(C#N)cc5F)n4)cc3F)nc3ccc(C(=O)O)cc32)CC1` [Compound 468, 2-{[4-({2-[(4-cyano-2-fluorophenoxy)methyl]pyrimidin-4-yl}oxy)-2-fluorophenyl]methyl}-1-{[1-(cyanomethyl)cyclopropyl]methyl}-1H-1,3-benzodiazole-6-carboxylic acid], below 0.05 µM; for `C[C@H]1[C@@H](Oc2ccnc(COc3ccc(F)cc3F)n2)CN1Cc1nc2ccc(C(=O)O)cc2n1C[C@@H]1CCO1` [Compound 548], below 0.05 µM.
Turning to `O=C(O)c1ccc2nc(CN3CC=C(c4ccc(F)c(COc5ccc(Cl)cc5Cl)c4)C3)n(C[C@@H]3CCO3)c2c1` [Compound 388, 2-[(3-{3-[(2,4-dichlorophenoxy)methyl]-4-fluorophenyl}-2,5-dihydro-1H-pyrrol-1-yl)methyl]-1-{[(2S)-oxetan-2-yl]methyl}-1H-1,3-benzodiazole-6-carboxylic acid], the EC50 is below 0.05 µM.
As for `N#Cc1cc(F)ccc1OCc1cc([C@@H]2CCN(Cc3nc4ccc(C(=O)O)cc4n3C[C@@H]3CCO3)C2)ccc1F` [Compound 447, 2-{[(3S)-3-{3-[(2-cyano-4-fluorophenoxy)methyl]-4-fluorophenyl}pyrrolidin-1-yl]methyl}-1-{[(2S)-oxetan-2-yl]methyl}-1H-1,3-benzodiazole-6-carboxylic acid], the concentration giving a half-maximal response (EC50) is below 0.05 µM.
On to `O=C(O)c1ccc2nc(CN3CC=C(c4cccc(COc5ccc(Cl)cc5Cl)n4)C3)n(C[C@@H]3CCO3)c2c1` [Example 384, (S)-2-((3-(6-((2,4-Dichlorophenoxy)methyl)pyridin-2-yl)-2,5-dihydro-1H-pyrrol-1-yl)methyl)-1-(oxetan-2-ylmethyl)-1H-benzo[d]imidazole-6-carboxylic acid], for which the EC50 was below 0.05 µM.
As for `CC1(c2ccc(Cl)cn2)Oc2cccc(CC3CCN(Cc4nc5ccc(C(=O)O)cc5n4C[C@@H]4CCO4)CC3)c2O1` (stereo partly drawn) [Example 173, 2-((4-((2-(5-Chloropyridin-2-yl)-2-methylbenzo[d][1,3]dioxol-4-yl)methyl)piperidin-1-yl)methyl)-1-(((S)-oxetan-2-yl)methyl)-1H-benzo[d]imidazole-6-carboxylic acid], the EC50 lay within 0.05 to 0.5 µM.
As to `O=C(O)c1ccc2nc(CN3CC=C(c4ccnc(COc5ccc(Cl)cc5Cl)c4)C3)n(Cc3ncco3)c2c1` [Compound 392], the EC50 is below 0.05 µM.
For `C[C@H]1[C@@H](Oc2ccnc(COc3ccc(C#N)cc3F)n2)CN1Cc1nc2ccc(C(=O)O)cc2n1C[C@@H]1CCO1` [Compound 545, 2-{[(2S,3S)-3-({2-[(4-cyano-2-fluorophenoxy)methyl]pyrimidin-4-yl}oxy)-2-methylazetidin-1-yl]methyl}-1-{[(2S)-oxetan-2-yl]methyl}-1H-1,3-benzodiazole-6-carboxylic acid] the value was below 0.05 µM; for `N#Cc1ccc(OCc2nccc(Oc3cc(F)c(Cc4nc5c(F)cc(C(=O)O)cc5n4C[C@@H]4CCO4)cc3F)n2)c(F)c1` [Compound 470, 2-{[4-({2-[(4-cyano-2-fluorophenoxy)methyl]pyrimidin-4-yl}oxy)-2,5-difluorophenyl]methyl}-4-fluoro-1-{[(2S)-oxetan-2-yl]methyl}-1H-1,3-bcnzodiazole-6-carboxylic acid], below 0.05 µM; for `O=C(O)c1ccc2nc(CN3CC[C@H](c4ccc(F)c(COc5ccc(Cl)cc5F)c4)C3)n(C[C@@H]3CCO3)c2c1` [Compound 448, 2-{[(3R)-3-{3-[(4-chloro-2-fluorophenoxy)methyl]-4-fluorophenyl}pyrrolidin-1-yl]methyl}-1-{[(2S)-oxetan-2-yl]methyl}-1H-1,3-benzodiazole-6-carboxylic acid], 0.05 to 0.5 µM.
With `CCn1cncc1Cn1c(CN2CC3(CC(Oc4cccc(COc5ccc(Cl)cc5Cl)c4)C3)C2)nc2ccc(C(=O)O)cc21` [Compound 235, 2-[(6-{3-[(2,4-dichlorophenoxy)methyl]phenoxy}-2-azaspiro[3.3]heptan-2-yl)methyl]-1-[(1-ethyl-1H-imidazol-5-yl)methyl]-1H-1,3-benzodiazole-6-carboxylic acid], the EC50 was 0.05 to 0.5 µM.
Consider `O=C(O)c1ccc2nc(CN3CC=C(c4cc(COc5ccc(Cl)cc5F)ccn4)C3)n(C[C@@H]3CCO3)c2c1` [Compound 393], for which the EC50 was in the range of 0.05 to 0.5 µM.
Consider `CCn1cncc1Cn1c(CN2CC(=Cc3cnc(COc4ccc(Cl)cc4C#N)o3)C2)nc2ccc(C(=O)O)cc21` [Compound 225, 2-{[3-({2-[(4-chloro-2-cyanophenoxy)methyl]-1,3-oxazol-5-yl}methylidene)azetidin-1-yl]methyl}-1-[(1-ethyl-1H-imidazol-5-yl)methyl]-1H-1,3-benzodiazole-6-carboxylic acid], for which the EC50 is below 0.05 µM.
For `N#Cc1ccc(OCc2cc([C@H]3CCN(Cc4nc5ccc(C(=O)O)cc5n4C[C@@H]4CCO4)C3)ccc2F)c(F)c1` [Compound 439, 2-{[(3R)-3-{3-[(4-cyano-2-fluorophenoxy)methyl]-4-fluorophenyl}pyrrolidin-1-yl]methyl}-1-{[(2S)-oxetan-2-yl]methyl}-1H-1,3-benzodiazole-6-carboxylic acid] the value was 0.05 to 0.5 µM.

A word on the EC50: it is the midpoint of the concentration-response curve.
